In patent US5698547A, “Cephalosporin antibiotics” (Microcide Pharmaceuticals, Inc., priority 1995, dated 1997):
Values after ≈ are worked out from the molar mass of the structure shown. Counter-ions that a name gives are not always drawn.

Tests used:
[1] = system: S. aureus Col (Meth^R) (lac^-); assay: MIC by agar dilution, S. aureus Col (Meth^R) (lac^-); type: cell-based; conditions: Staphylococcus aureus; agar dilution; S. aureus Col (Meth^R) (lac^-); read-out: MIC
Procedure, shortened: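 Agar dilution per NCCLS (1991): two-fold dilutions from 128 μg/mL down to ≤0.25 μg/mL in Mueller-Hinton agar, each level in duplicate. Spots of about 10^4 cfu of log-phase culture; 16-20 h at 35°-36° C. MIC in μg/ml is the lowest concentration inhibiting growth.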

[2] = system: methicillin-susceptible S. aureus strain ATCC 13709; assay: murine model for lethal bacteremic peritonitis; type: in vivo, female Swiss-Webster mice; conditions: subcutaneous, 72 h
Description: Groups of 5 female Swiss-Webster mice (Simonsen, Gilroy, Calif.) each are challenged by the intraperitoneal (IP) route with tenfold increments of a bacterial inoculum. This permits calculation of the mean lethal dose (LD50) and the LD100. For preliminary evaluation of a new antibiotic, mice are challenged IP with an LD100 titer of bacteria. In two equal doses administered at the time of bacterial challenge and 2 hours later, groups of 10 mice each are treated subcutaneously with two-fold increments of the test drug and an antibiotic of known efficacy in mice and humans (i.e., positive control). Mice are observed for 72 h. Those alive at 72 h are considered long term survivors. The total drug dose in mg/kg that protects 50% of mice in a group from death is termed the mean protective dose (PD50). PD50 s are similarly determined for several pathogens. The quantitative endpoints for the new drug are then compared with those obtained with reference antibiotics.
Six ten-fold dilutions of inoculum suspended in 0.5 mL of sterilized 7% hog gastric mucin (Sigma) are injected IP in groups of 5 mice each. A control group of 5 mice receive mucin alone. Mice are observed for 72 h. Those alive at 72 h are considered long term survivors. The mean lethal dose (LD50) and 100% lethal dose (LD100) are determined by the probit test.
For antibiotic efficacy studies, mice are challenged IP with bacterial titers that will afford an LD100 for the test strain. In two equal doses administered at the time of bacterial challenge and 2 hours later, groups of 10 mice each are treated by the subcutaneous route (SC) with twofold increments of the test antibiotic; another group is treated similarly with a reference antibiotic of known efficacy in animals and man. Drug doses can range from 0.01 to 512 mg/kg. If the drug is poorly soluble, Tween 20 or propylene glycol will be employed to solubilize the drug. Animals are observed for 72 h. The 50% protective dose (PD50) is calculated in mg/kg by the probit method. The PD50 is the same as the 50% effective dose (ED50) and the 50% curative dose (CD50). Samples of blood from the hearts of all animals that die and from half the mice that survive are cultured on brain-heart infusion agar. Animals that received a protective dosage of the test drug will be alive at 72 h, although they may appear moderately ill to very ill during the observation period. […] Most of these mice will die within 6 to 48 h. Those alive at 72 h will be considered long term survivors.
(Compound numbers correspond to those in MIC tables; data
reported for challenge with methicillin-susceptible S. aureus

CO/N=C(\C(=O)N[C@@H]1C(=O)N2C(C(=O)O)=C(COC(C)=O)CS[C@H]12)c1csc(N)n1 [Cefotaxime, (7R)-3-Acetoxymethyl-7-[(Z)-2-(aminothiazol-4-yl)-2-(methoxyimino)acetamido]-3-cephem-4-carboxylic acid, reference compound]
MIC [1]: > 32 µg/mL | Mortality ([2]; dose 2.5 mg/kg): 8/10 | Mortality ([2]; dose 5 mg/kg): 5/10 | Mortality ([2]; dose 10 mg/kg): 3/10 | Mortality ([2]; dose 20 mg/kg): 4/10 | Mortality ([2]; dose 40 mg/kg): 1/10

N#CCC(=O)N[C@@H]1C(=O)N2C(C(=O)O)=C(Sc3ccccc3I)CS[C@H]12 [Cmpd 17, (7R)-7-[(Cyanoacetyl)amino]-3-(o-iodophenylthio)-3-cephem-4-carboxylic acid]
MIC [1]: 2 µg/mL (≈ 3.99 µM) | Mortality ([2]; dose 2 mg/kg): 8/10 | Mortality ([2]; dose 4 mg/kg): 5/10 | Mortality ([2]; dose 8 mg/kg): 0/10 | Mortality ([2]; dose 16 mg/kg): 0/10

N#Cc1ccccc1SC1=C(C(=O)O)N2C(=O)[C@@H](NC(=O)Cc3ccccc3)[C@H]2SC1 [Cmpd 41, (7R)-7-[(Phenylacetyl)amino]-3-(2-cyanophenylthio)-3-cephem-4-carboxylic acid]
MIC [1]: 1 µg/mL (≈ 2.21 µM) | Mortality ([2]; dose 0.625 mg/kg): 8/10 | Mortality ([2]; dose 1.25 mg/kg): 6/10 | Mortality ([2]; dose 2.5 mg/kg): 0/10 | Mortality ([2]; dose 5 mg/kg): 0/10 | Mortality ([2]; dose 10 mg/kg): 0/10

O=C(Cc1ccccc1)N[C@@H]1C(=O)N2C(C(=O)O)=C(Sc3cccnc3-c3ccccc3)CS[C@H]12 [Cmpd 81, (7R)-7-[(Phenylacetyl)amino]-3-(2-phenylpyridin-3-ylthio)-3-cephem-4-carboxylic acid]
MIC [1]: 2 µg/mL (≈ 3.97 µM) | Mortality ([2]; dose 2 mg/kg): 8/10 | Mortality ([2]; dose 4 mg/kg): 10/10 | Mortality ([2]; dose 8 mg/kg): 5/10 | Mortality ([2]; dose 16 mg/kg): 2/10

O=C(Cc1ccccc1)N[C@@H]1C(=O)N2C(C(=O)O)=C(Sc3ccnn3-c3ccccc3)CS[C@H]12 [Cmpd 87, (7R)-7-[(Phenylacetyl)amino]-3-(1-N-phenylpyrazol-5-ylthio)-3-cephem-4-carboxylic acid]
MIC [1]: 1 µg/mL (≈ 2.03 µM) | Mortality ([2]; dose 2 mg/kg): 4/10 | Mortality ([2]; dose 4 mg/kg): 3/10 | Mortality ([2]; dose 8 mg/kg): 0/10 | Mortality ([2]; dose 16 mg/kg): 0/10

N#CCC(=O)N[C@@H]1C(=O)N2C(C(=O)O)=C(Sc3ccnn3-c3ccccc3)CS[C@H]12 [Cmpd 88, (7R)-7-[(Cyanoacetyl)amino]-3-(1-N-phenylpyrazol-5-ylthio)-3-cephem-4-carboxylic acid]
MIC [1]: 4 µg/mL (≈ 9.06 µM) | Mortality ([2]; dose 0.625 mg/kg): 2/10 | Mortality ([2]; dose 1.25 mg/kg): 1/10 | Mortality ([2]; dose 2.5 mg/kg): 0/10 | Mortality ([2]; dose 5 mg/kg): 0/10 | Mortality ([2]; dose 10 mg/kg): 0/10

Nc1nc(/C(=N/OC2CCCC2)C(=O)N[C@@H]2C(=O)N3C(C(=O)O)=C(Sc4ccnn4-c4ccccc4)CS[C@H]23)cs1 [Cmpd 89, (7R)-7-[(Z)-2-(aminothiazol-4-yl)-2-(cyclopentyloxyimino)acetamido]-3-(1-N-phenylpyrazol-5-ylthio)-3-cephem-4-carboxylic acid]
MIC [1]: 2 µg/mL (≈ 3.27 µM) | Mortality ([2]; dose 0.625 mg/kg): 9/10 | Mortality ([2]; dose 1.25 mg/kg): 9/10 | Mortality ([2]; dose 2.5 mg/kg): 9/10 | Mortality ([2]; dose 5 mg/kg): 8/10 | Mortality ([2]; dose 10 mg/kg): 8/10

N=C(N)SCc1ccc(CC(=O)N[C@@H]2C(=O)N3C(C(=O)O)=C(Sc4ccccc4CSC(=N)N)CS[C@H]23)cc1 [Cmpd 97, (7R)-7-[((4-isothiouroniummethylphenyl)acetyl)amino]-3-(2-isothiouroniummethylphenylthio)-3-cephem-4-carboxylate, trifluoroacetic acid salt]
MIC [1]: 2 µg/mL | Mortality ([2]; dose 0.3125 mg/kg): 8/10 | Mortality ([2]; dose 0.625 mg/kg): 5/10 | Mortality ([2]; dose 1.25 mg/kg): 3/10 | Mortality ([2]; dose 2.5 mg/kg): 2/10 | Mortality ([2]; dose 5 mg/kg): 0/10

N=C(N)SCc1ccccc1SC1=C(C(=O)O)N2C(=O)[C@@H](NC(=O)Cc3ccccc3CN)[C@H]2SC1 [Cmpd 101, (7R)-7-[((2-Aminomethylphenyl)acetyl)amino]-3-(2-isothiouroniummethylphenylthio)-3-cephem-4-carboxylate, trifluoroacetic acid salt]
MIC [1]: 4 µg/mL | Mortality ([2]; dose 0.625 mg/kg): 5/10 | Mortality ([2]; dose 1.25 mg/kg): 2/10 | Mortality ([2]; dose 2.5 mg/kg): 0/10 | Mortality ([2]; dose 5 mg/kg): 0/10 | Mortality ([2]; dose 10 mg/kg): 0/10

N#Cc1ncccc1SC1=C(C(=O)O)N2C(=O)[C@@H](NC(=O)Cc3ccccc3)[C@H]2SC1 [Cmpd 102, (7R)-7-[(Phenylacetyl)amino]-3-(2-cyanopyridin-3-ylthio)-3-cephem-4-carboxylic acid]
MIC [1]: 4 µg/mL (≈ 8.84 µM) | Mortality ([2]; dose 0.3125 mg/kg): 10/10 | Mortality ([2]; dose 0.625 mg/kg): 8/10 | Mortality ([2]; dose 1.25 mg/kg): 7/10 | Mortality ([2]; dose 2.5 mg/kg): 5/10 | Mortality ([2]; dose 5 mg/kg): 0/10

O=C(Cc1ccccc1)N[C@@H]1C(=O)N2C(C(=O)O)=C(Sc3cccnc3-n3cccn3)CS[C@H]12 [Cmpd 103, (7R)-7-[(Phenylacetyl)amino]-3-(2-(pyrazol-1-yl)pyridin-3-ylthio)-3-cephem-4-carboxylic acid]
MIC [1]: 2 µg/mL (≈ 4.05 µM) | Mortality ([2]; dose 0.625 mg/kg): 7/10 | Mortality ([2]; dose 1.25 mg/kg): 7/10 | Mortality ([2]; dose 2.5 mg/kg): 7/10 | Mortality ([2]; dose 5 mg/kg): 5/10 | Mortality ([2]; dose 10 mg/kg): 0/10

CCC(CC)O/N=C(\C(=O)N[C@@H]1C(=O)N2C(C(=O)O)=C(Sc3ccnn3-c3ccccc3)CS[C@H]12)c1csc(N)n1 [Cmpd 104, (7R)-7-[(Z)-2-(aminothiazol-4-yl)-2-(3-pentyloxyimino)acetamido]-3-(1-N-phenylpyrazol-5-ylthio)-3-cephem-4-carboxylic acid]
MIC [1]: 2 µg/mL (≈ 3.26 µM) | Mortality ([2]; dose 0.625 mg/kg): 6/10 | Mortality ([2]; dose 1.25 mg/kg): 10/10 | Mortality ([2]; dose 2.5 mg/kg): 8/10 | Mortality ([2]; dose 5 mg/kg): 8/10 | Mortality ([2]; dose 10 mg/kg): 9/10

CSCC(=O)N[C@@H]1C(=O)N2C(C(=O)O)=C(Sc3ccnn3-c3ccccc3)CS[C@H]12 [Cmpd 106, (7R)-7-[(methylthioacetyl)amino]-3-(1-N-phenylpyrazol-5-ylthio)-3-cephem-4-carboxylic acid]
MIC [1]: 1 µg/mL (≈ 2.16 µM) | Mortality ([2]; dose 0.1562 mg/kg): 9/10 | Mortality ([2]; dose 0.3125 mg/kg): 9/10 | Mortality ([2]; dose 0.625 mg/kg): 6/10 | Mortality ([2]; dose 1.25 mg/kg): 2/10 | Mortality ([2]; dose 2.5 mg/kg): 1/10

O=C(Cc1ccccc1)N[C@@H]1C(=O)N2C(C(=O)O)=C(Sc3ccccc3-n3cccn3)CS[C@H]12 [Cmpd 132, (7R)-7-[(Phenylacetyl)amino]-3-(2-(pyrazol-1-yl)phenylthio)-3-cephem-4-carboxylic acid]
MIC [1]: 8 µg/mL (≈ 16.2 µM)

CSCC(=O)N[C@@H]1C(=O)N2C(C(=O)O)=C(Sc3ccccc3CSC(=N)NN)CS[C@H]12 [Cmpd 133, (7R)-7-[(methylthioacetyl)amino]-3-(2-(N-amino)isothiouroniummethylphenylthio)-3-cephem-4-carboxylate, inner salt]
MIC [1]: 2 to 4 µg/mL

N=C(N)SCc1ccccc1SC1=C(C(=O)O)N2C(=O)[C@@H](NC(=O)CSCCCI)[C@H]2SC1 [Cmpd 134, (7R)-7-[(3-iodoprop-1-ylthioacetyl)amino]-3-(2-isothiouroniummethylphenylthio)-3-cephem-4-carboxylate, inner salt]
MIC [1]: 2 µg/mL

CSCC(=O)N[C@@H]1C(=O)N2C(C(=O)O)=C(Sc3ccccc3CNC(=N)N)CS[C@H]12 [Cmpd 135, (7R)-7-[(Methylthioacetyl)amino]-3-(2-guanidiniummethylphenylthio)-3-cephem-4-carboxylate, inner salt]
MIC [1]: 8 µg/mL

N=C(N)SCc1ccccc1SC1=C(C(=O)O)N2C(=O)[C@@H](NC(=O)/C(=N\O)c3ccccc3)[C@H]2SC1 [Cmpd 136, (7R)-7-[(Z)-2-(Phenyl)-2-(hydroxyimino)acetamido]-3-(2-isothiouroniummethylphenylthio)-3-cephem-4-carboxylate, inner salt]
MIC [1]: 2 µg/mL
